Laboratory results reported in publication PMC7645366 (EMBO Molecular Medicine, 2020).
Values joined by “and” are separate entries in the source; they are usually repeats but may differ in a detail not shown here. Equal entries are not always repeated. Where two headings read alike, the source gives them in different places.

What was measured:
[1] = biological target: T1, LLO (Listeria monocytogenes serovar 1/2a, UniProt P13128); assay: LDH cytotoxicity assay, THP-1 macrophages, LLO; format: cell-based; details: THP-1, LLO 0.5 μg/ml, 100 μM, 18 h
T1 sequence (P13128 25-529): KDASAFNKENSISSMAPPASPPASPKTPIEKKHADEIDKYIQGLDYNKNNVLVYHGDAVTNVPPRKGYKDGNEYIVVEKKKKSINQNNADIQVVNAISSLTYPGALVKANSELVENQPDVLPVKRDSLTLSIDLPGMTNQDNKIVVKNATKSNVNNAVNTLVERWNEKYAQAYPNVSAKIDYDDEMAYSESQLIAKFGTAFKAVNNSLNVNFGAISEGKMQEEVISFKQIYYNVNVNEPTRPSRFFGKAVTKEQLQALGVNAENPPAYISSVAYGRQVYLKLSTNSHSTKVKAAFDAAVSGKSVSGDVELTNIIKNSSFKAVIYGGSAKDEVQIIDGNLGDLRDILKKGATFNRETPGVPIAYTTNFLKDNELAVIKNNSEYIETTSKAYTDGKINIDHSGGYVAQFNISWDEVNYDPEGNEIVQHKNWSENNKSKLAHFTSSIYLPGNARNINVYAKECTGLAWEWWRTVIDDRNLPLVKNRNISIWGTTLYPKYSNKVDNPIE
Procedure: (§1) Human monocytic leukemia THP‐1 cells (ATCC TIB‐202) were cultivated in R10 medium and maintained at density of 10^6 cells/ml. For differentiation into macrophages, THP‐1 cells were treated for 48 h with 20 ng/ml of phorbol myristate acetate (Sigma).
Cytotoxicity was determined by measuring the activity of lactate dehydrogenase enzyme released into the culture supernatant using the Cytotoxicity Detection kit (Roche) according to the manufacturer's instructions. The percentage cytotoxicity was calculated by ratio to 100% lysis control (0.1% saponin).

[2] = biological target: T2, PLY (Streptococcus pneumoniae serotype 4, UniProt P0C2J9); format: cell-based
T2 sequence (P0C2J9 whole entry, looked up): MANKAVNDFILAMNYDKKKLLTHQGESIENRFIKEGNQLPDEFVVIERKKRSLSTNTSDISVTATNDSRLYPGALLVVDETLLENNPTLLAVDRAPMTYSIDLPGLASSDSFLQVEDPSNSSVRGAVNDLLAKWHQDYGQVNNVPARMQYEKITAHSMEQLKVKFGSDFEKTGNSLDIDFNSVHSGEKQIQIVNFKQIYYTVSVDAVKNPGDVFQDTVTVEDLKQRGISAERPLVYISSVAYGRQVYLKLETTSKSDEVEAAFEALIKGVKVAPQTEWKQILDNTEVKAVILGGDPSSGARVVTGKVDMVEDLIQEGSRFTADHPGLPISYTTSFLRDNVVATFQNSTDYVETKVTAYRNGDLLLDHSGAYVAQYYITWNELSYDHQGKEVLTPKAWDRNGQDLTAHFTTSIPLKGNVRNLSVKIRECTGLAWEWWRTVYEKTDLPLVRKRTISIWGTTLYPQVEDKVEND

[3] = biological target: T2, PLY; format: cell-based; details: 100uM; 18 h
[4] = biological target: T1, LLO; assay: Cytokine ELISA, THP-1 macrophages stimulated with LLO; format: cell-based; details: LLO 0.5 μg/ml, 100uM, 18 h
Procedure: as §1

[5] = biological target: SLO (Streptococcus pyogenes serotype M1, UniProt P0C0I3); format: cell-based; details: 100uM; 18 h
SLO, sequence (P0C0I3 34-571 limits assumed): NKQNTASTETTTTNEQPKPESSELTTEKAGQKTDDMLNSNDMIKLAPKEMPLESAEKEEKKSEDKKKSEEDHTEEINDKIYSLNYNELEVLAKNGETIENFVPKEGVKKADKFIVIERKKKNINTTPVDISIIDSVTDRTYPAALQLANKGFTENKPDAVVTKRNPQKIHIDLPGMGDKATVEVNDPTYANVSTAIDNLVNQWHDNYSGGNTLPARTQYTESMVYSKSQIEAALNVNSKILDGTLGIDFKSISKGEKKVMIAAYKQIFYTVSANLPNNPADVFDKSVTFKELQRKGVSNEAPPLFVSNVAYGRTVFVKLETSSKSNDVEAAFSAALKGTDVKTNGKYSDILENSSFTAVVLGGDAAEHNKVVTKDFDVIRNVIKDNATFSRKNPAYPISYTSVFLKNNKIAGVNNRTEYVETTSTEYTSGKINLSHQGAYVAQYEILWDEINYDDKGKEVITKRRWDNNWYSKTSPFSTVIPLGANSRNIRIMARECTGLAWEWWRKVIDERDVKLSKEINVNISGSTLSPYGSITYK

[6] = biological target: T2, PLY; details: 18 h

Row | Molecule | % cytotoxicity relative to positive control (lysis buffer), LDH ([1]; experiment 1 of 4) [%] | % cytotoxicity relative to positive control (lysis buffer), LDH ([1]; experiment 2 of 4) [%] | % cytotoxicity relative to positive control (lysis buffer), LDH ([1]; experiment 3 of 4) [%] | % cytotoxicity relative to positive control (lysis buffer), LDH ([1]; experiment 4 of 4) [%] | cytolysis by PLY in live imaging [2] | IL-8 levels in THP-1 macrophages [3] | IL-8 levels in THP-1 macrophages ([4]; experiment 1 of 3) [pg/mL] | IL-8 levels in THP-1 macrophages ([4]; experiment 2 of 3) [pg/mL] | IL-8 levels in THP-1 macrophages ([4]; experiment 3 of 3) [pg/mL] | IL-8 levels in THP-1 macrophages [5] | % cytotoxicity relative to positive control (lysis buffer), LDH ([6]; 100 μM) | % cytotoxicity relative to positive control (lysis buffer), LDH [6] [%]
1 | CC(C)CCC[C@@H](C)[C@H]1CC[C@H]2[C@@H]3CC=C4C[C@@H](O)CC[C@]4(C)[C@H]3CC[C@]12C [CHO, Cholesterol, reference compound] | 42.88 | 43.52 | 31.62 | 53.89 | protection from PLY induced cytolysis | 104 pg/mL and 72.9 pg/mL and 80.5 pg/mL | 112.8 | 87.2 | 126.9 | 79.6 pg/mL and 72.8 pg/mL and 144.9 pg/mL | 27.36% and 42.05% and 42.16% | 35.29
2 | Bovine serum albumin [BSA] |  |  |  |  | cytolysis |  |  |  |  |  |  | 
